According to PubChem BioAssay (NCI):
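Values below derive from 48-hour exposures of cells grown in 96-well plates, with endpoints linearly interpolated between the two concentrations bracketing the appropriate inhibition level. At the GI50, growth is halved. Definition used: TGI = concentration required for complete inhibition of growth.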

Tests used:
Test in all cases: inhibition of tumour cell growth, NCI panel, 48 h
786-0 renal = tested on: 786-0 renal
MOLT-4 leukemia = tested on: MOLT-4 leukemia
MDA-MB-231 breast = tested on: MDA-MB-231 breast
CAKI-1 renal = tested on: CAKI-1 renal
DU-145 prostate = tested on: DU-145 prostate
UO-31 renal = tested on: UO-31 renal
RPMI-8226 leukemia = tested on: RPMI-8226 leukemia
HOP-92 NSCLC = tested on: HOP-92 NSCLC
COLO 205 colon = tested on: COLO 205 colon
OVCAR-4 ovarian = tested on: OVCAR-4 ovarian

SMILES	TGI (786-0 renal)	TGI (MOLT-4 leukemia)	TGI (MDA-MB-231 breast)	TGI (CAKI-1 renal)	TGI (DU-145 prostate)	TGI (UO-31 renal)	TGI (RPMI-8226 leukemia)	TGI (HOP-92 NSCLC)	TGI (COLO 205 colon)	TGI (OVCAR-4 ovarian)	GI50 (786-0 renal)	GI50 (MOLT-4 leukemia)	GI50 (CAKI-1 renal)	GI50 (COLO 205 colon)	GI50 (OVCAR-4 ovarian)	GI50 (DU-145 prostate)	GI50 (UO-31 renal)	GI50 (RPMI-8226 leukemia)	GI50 (HOP-92 NSCLC)	GI50 (MDA-MB-231 breast)
CCC(/C=C/c1ccccc1)=N\Nc1ccc(Cl)c(Cl)c1	> 100 µM	> 100 µM	55.7 µM	> 100 µM	> 100 µM	57.9 µM	50.1 µM	58.2 µM	> 100 µM											
C=CC1C(OC2OC(CO)C(O)C(O)C2O)OC=C(C(=O)OC)C1CC=O (stereo not drawn)	> 100 µM	> 100 µM				> 100 µM	> 100 µM		> 100 µM	> 100 µM										
CCOC(=O)c1nc(-c2ccccc2)oc1OCC	> 100 µM	> 100 µM					> 100 µM		> 100 µM	> 100 µM										
C/C=C/C=C/CCCCCCCCCCCCCC1(OC)C=CC(CC(=O)OC)OO1 (stereo not drawn)	3.51 µM	33.8 µM		3.44 µM		7.94 µM	46 µM	4.12 µM	3.19 µM	2.48 µM	1.75 µM	7.97 µM	1.6 µM	1.76 µM	1.15 µM					
CCOC(=O)C1=C(Nc2cccc3ccccc23)OC/C1=N\NC(=O)c1ccccc1O	> 100 µM	53.5 µM		80.2 µM		> 87.6 µM	> 100 µM	46.1 µM	29.3 µM	> 59.1 µM										
Cc1c(Cl)cccc1NC1=C(Cl)C(=O)N(Cc2ccccc2)C1=O	11 µM	43 µM		5.06 µM	17.1 µM	24.4 µM	26.7 µM	14.9 µM	57.2 µM	34 µM	1.9 µM	10.1 µM	1.11 µM	22.1 µM	15.5 µM	3.67 µM	6.96 µM	1.25 µM	1.56 µM	
O=C(CCc1cc(-c2ccccc2)nc(=S)[nH]1)Nc1ccccc1[N+](=O)[O-]	> 100 µM	> 100 µM		> 100 µM		> 100 µM	> 100 µM	> 100 µM	> 100 µM											
CCC1CCc2c(OC)ccc(OCC(=O)O)c2C1=O (stereo not drawn)	> 100 µM	> 100 µM				> 100 µM	> 100 µM		> 100 µM	> 100 µM										
COc1cc(C)c(O)c(C(=O)O)c1	> 100 µM	> 100 µM		> 100 µM		> 100 µM			> 100 µM	> 100 µM										
CC1CCC(C(C)C)C(O[C@@H]2OC(=O)C[C@@H]2Sc2ccccc2)C1 (stereo partly drawn)	45.9 µM	32 µM		63.6 µM			34.7 µM		36.8 µM	41.9 µM										
CC(C)N1C(NNC(=O)c2cnccn2)=NS(=O)(=O)c2ccccc21	> 100 µM	> 100 µM	> 100 µM	> 100 µM	> 100 µM	> 100 µM	> 100 µM		> 100 µM	> 100 µM	> 100 µM	> 100 µM	> 100 µM	> 100 µM	> 100 µM	> 100 µM	> 100 µM	> 100 µM		> 100 µM
O=C1c2ccccc2CC1C1(O)C(=O)Nc2ccccc21 (stereo not drawn)	> 100 µM	> 100 µM		> 100 µM		> 100 µM	> 100 µM	> 100 µM	> 100 µM	> 100 µM										
CC(=O)Nc1ccc(/C=C/C(=O)c2sc(-c3nc(C)c(C(=O)/C=C/c4ccc(NC(C)=O)cc4)s3)nc2C)cc1	> 100 µM	> 100 µM		> 100 µM		> 100 µM			> 100 µM	> 100 µM										
COC(=O)C1=C(OC(=O)c2ccc(Cl)cc2)C(C(=O)OC)[C@@]2(O)[C@@H](C(=O)OC)C(c3ccccc3Cl)C[C@@H]1[C@@H]2C(=O)OC (stereo partly drawn)	> 100 µM	34.6 µM	17.5 µM	7.35 µM	> 100 µM	24 µM	> 100 µM	> 100 µM	> 100 µM		7.27 µM	3.54 µM	2.09 µM	23.3 µM		7.46 µM	4.03 µM	8.79 µM	47.2 µM	4.57 µM
CC(=O)NC1CC2Oc3ccc(C)cc3C(C)(O2)C1O (stereo not drawn)	> 100 µM	> 100 µM				> 100 µM	> 100 µM		> 100 µM											
CCN(CC)c1ccc(C(=N)c2ccc(N(C)C)cc2)cc1	4.45 µM	4.55 µM	3.87 µM	7.73 µM	7.18 µM	7.73 µM		4.22 µM	3.06 µM	> 39.5 µM	1.71 µM	1.17 µM	0.246 µM	0.197 µM	2.75 µM	1.7 µM	1.45 µM		1.05 µM	1.33 µM
CC(=O)O[C@H]1CC[C@@]2(C)[C@@H](CC[C@@H]3[C@@H]2CC[C@]2(C)C=C(C=O)C[C@@H]32)C1	37.3 µM	7.33 µM	27.5 µM	98.1 µM	15.9 µM	35.3 µM	8.16 µM		39.2 µM	13.8 µM	19.5 µM	2.61 µM	29.8 µM	19 µM	3.48 µM	4.75 µM	18.8 µM	2.74 µM		10.6 µM
CS/C(=N\c1nccs1)NC(=O)c1cccc(Cl)c1	> 100 µM	89.6 µM		> 100 µM		> 100 µM	> 100 µM	> 100 µM	> 100 µM	> 100 µM										
COC(=O)c1cc(-c2cccn2C)c2c(c1C(=O)OC)c1ccccc1n2C	> 100 µM	29.3 µM				> 100 µM	> 100 µM	> 100 µM	> 100 µM	> 100 µM										
COC(=O)C1=C(O)c2cc3c(cc2[C@H](c2cc(OC)c(OC)c(OC)c2)C1C(=O)OC)OCO3 (stereo partly drawn)	> 100 µM	> 100 µM		89.6 µM		> 100 µM	> 100 µM	> 100 µM	45.7 µM	83 µM										
